How the values were obtained:
[1] = biological target: Cholecystokinin receptor (Homo sapiens) (UniProt P32239+P32238); assay: Ratio of inhibitory activity of CCK-A to CCK-B was reported.; type: protein assay
[2] = Compound was evaluated for the inhibition of […] I-CCK-8 binding at Cholecystokinin type B receptor on guinea pig cerebral cortical membranes
[3] = biological target: T1, Cholecystokinin receptor type A (Rattus norvegicus) (UniProt P30551); assay: Compound was evaluated for the inhibition of […] I-CCK-8 binding at Cholecystokinin type A receptor in rat pancreatic membranes at 10 e -8 M; type: cell membranes; conditions: Membrane
T1 sequence (whole entry): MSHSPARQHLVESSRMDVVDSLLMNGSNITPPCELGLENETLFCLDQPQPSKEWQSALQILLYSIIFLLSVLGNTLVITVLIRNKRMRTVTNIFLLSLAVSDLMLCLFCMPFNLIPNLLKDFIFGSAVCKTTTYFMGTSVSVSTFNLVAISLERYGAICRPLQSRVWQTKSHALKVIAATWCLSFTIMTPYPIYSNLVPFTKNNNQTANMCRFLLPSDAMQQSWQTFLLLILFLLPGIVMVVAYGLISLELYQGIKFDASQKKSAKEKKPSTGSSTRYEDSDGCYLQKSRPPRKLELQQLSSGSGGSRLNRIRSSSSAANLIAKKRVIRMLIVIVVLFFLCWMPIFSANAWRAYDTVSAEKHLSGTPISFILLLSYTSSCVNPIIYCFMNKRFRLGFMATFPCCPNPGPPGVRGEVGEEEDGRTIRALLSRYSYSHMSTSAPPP

[4] = biological target: T2, Cholecystokinin receptor type A (Rattus norvegicus, UniProt P30551); assay: Compound was evaluated for the inhibition of […] I-CCK-8 binding at Cholecystokinin type A receptor in rat pancreatic membranes; type: cell membranes, Membrane
T2 sequence (P30551 whole entry): T1 sequence (whole entry)

Cholecystokinin receptor (Homo sapiens), sequence (P32238 whole entry, looked up): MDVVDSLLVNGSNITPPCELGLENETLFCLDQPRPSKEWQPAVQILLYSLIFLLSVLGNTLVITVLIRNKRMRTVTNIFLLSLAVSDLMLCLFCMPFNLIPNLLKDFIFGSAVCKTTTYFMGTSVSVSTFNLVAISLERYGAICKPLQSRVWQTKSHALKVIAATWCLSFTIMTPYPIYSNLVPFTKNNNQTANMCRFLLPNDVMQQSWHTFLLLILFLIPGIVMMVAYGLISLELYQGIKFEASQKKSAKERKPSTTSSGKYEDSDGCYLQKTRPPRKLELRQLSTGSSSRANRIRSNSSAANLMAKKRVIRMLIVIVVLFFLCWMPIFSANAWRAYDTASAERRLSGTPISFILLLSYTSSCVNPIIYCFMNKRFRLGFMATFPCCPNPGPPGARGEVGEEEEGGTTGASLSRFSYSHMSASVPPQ
Cholecystokinin receptor (Homo sapiens), sequence (P32239 whole entry, looked up): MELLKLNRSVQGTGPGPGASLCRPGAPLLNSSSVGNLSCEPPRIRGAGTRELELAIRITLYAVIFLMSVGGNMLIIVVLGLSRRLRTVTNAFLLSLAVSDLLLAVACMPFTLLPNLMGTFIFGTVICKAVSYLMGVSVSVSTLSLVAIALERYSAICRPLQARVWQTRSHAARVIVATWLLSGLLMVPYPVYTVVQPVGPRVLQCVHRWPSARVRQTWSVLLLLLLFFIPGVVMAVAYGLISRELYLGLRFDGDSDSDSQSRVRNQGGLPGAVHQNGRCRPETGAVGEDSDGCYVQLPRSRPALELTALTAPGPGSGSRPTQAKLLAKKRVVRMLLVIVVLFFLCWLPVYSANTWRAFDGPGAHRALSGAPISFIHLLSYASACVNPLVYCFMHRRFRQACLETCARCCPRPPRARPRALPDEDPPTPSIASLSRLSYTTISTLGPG

Structure (SMILES)	Ratio [1]	IC50 [4]	also measured
Cc1cccc2c1N(CC(=O)N1CC3CCC(CC3)C1)C(=O)C(NC(=O)Nc1cccc(-c3nn[nH]n3)c1)N=C2c1ccccc1F (centres undefined)	21	–	IC50 [2]: 0.68 nM
O=C(Nc1cccc(-c2nn[nH]n2)c1)NC1N=C(c2ccccc2F)c2ccccc2N(CC(=O)N2CC3CCC(CC3)C2)C1=O (centres undefined)	710	–	–
CCc1cccc2c1N(CC(=O)N1CC3CCC(CC3)C1)C(=O)C(NC(=O)Nc1cccc(-c3nn[nH]n3)c1)N=C2c1ccccc1F (centres undefined)	22	–	–
CC(C)c1cccc2c1N(CC(=O)N1CC3CCC(CC3)C1)C(=O)C(NC(=O)Nc1cccc(-c3nn[nH]n3)c1)N=C2c1ccccc1F (centres undefined)	–	–	inhibition [3]: 12.2%
O=C(Nc1cccc(-c2nnn[nH]2)c1)NC1N=C(c2ccccc2F)c2cccc(Cl)c2N(CC(=O)N2CC3CCC(CC3)C2)C1=O (centres undefined)	–	13 nM	–
CCc1cccc2c1N(CC(=O)N1CC3CCC(CC3)C1)C(=O)C(NC(=O)Nc1cccc(-c3nnn[nH]3)c1)N=C2c1ccccc1F (centres undefined)	–	18 nM	–
O=C(Nc1cccc(-c2nn[nH]n2)c1)NC1N=C(c2ccccc2F)c2cccc(Cl)c2N(CC(=O)N2CC3CCC(CC3)C2)C1=O (centres undefined)	20	–	–
O=C(Nc1cccc(-c2nnn[nH]2)c1)NC1N=C(c2ccccc2F)c2ccccc2N(CC(=O)N2CC3CCC(CC3)C2)C1=O (centres undefined)	–	62 nM	–

From ChEMBL document CHEMBL1130831, “Relationship between dihedral angles of N1 and C9 substituents in 1,4-benzodiazepines and dual cholecystokinin-A and -B antagonistic activities” (Bioorg Med Chem Lett, 1998)
